The subject of one test is NCI-H1792. The test is described as follows: relative viability (nuclei count vs DMSO), 5 days (fraction); higher = more cells survive. As to conditions: first compound 0.4 µM. The essentials:
(§1)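 Each reported value is a median over duplicate plates. It expresses relative viability: treated-well nuclei count divided by vehicle-well nuclei count. Lung cancer cell lines in 1536-well plates were dosed by pin tool a day after seeding, alone with one drug or with a fixed anchor-drug dose plus five library-drug doses (not always all listed) in √10 steps, and nuclei were counted after 5 days.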
With `Clc1ccc(Nc2nnc(Cc3ccncc3)c3ccccc23)cc1` [Vatalanib] + Nc1nc2[nH]cc(CCc3ccc(C(=O)N[C@@H](CCC(=O)O)C(=O)O)cc3)c2c(=O)[nH]1 [Pemetrexed] (partner 0.2 µM), the relative viability amounted to 0.771.

Still in this test, the particulars now being: first compound 1.265 µM.
`COc1cc(N2CCC(C(N)=O)CC2)ccc1Nc1nc(N)c(Cl)c(Nc2ccccc2S(=O)(=O)C(C)C)n1` [HG-5-88-01] + N=C(N)NC(=N)NCCc1ccccc1 [Phenformin] (partner 250 µM): the relative viability worked out at 0.525.

`Clc1ccc(Nc2nnc(Cc3ccncc3)c3ccccc23)cc1` [Vatalanib] + COc1cccc2cc(-c3nc([C@H]4CC[C@H](C(=O)O)CC4)n4ncnc(N)c34)[nH]c12 [OSI-027] (partner 0.5 µM) yielded a relative viability of 0.707.

`Clc1ccc(Nc2nnc(Cc3ccncc3)c3ccccc23)cc1` [Vatalanib] + N=C(N)NC(=N)NCCc1ccccc1 [Phenformin] (partner 250 µM): the relative viability amounted to 0.236.

The compound `Clc1ccc(Nc2nnc(Cc3ccncc3)c3ccccc23)cc1` [Vatalanib] + Nc1nc2[nH]cc(CCc3ccc(C(=O)N[C@@H](CCC(=O)O)C(=O)O)cc3)c2c(=O)[nH]1 [Pemetrexed] (partner 0.2 µM) gave a relative viability of 0.817.

The same test, now with this note: first compound 4 µM.
`COc1cc(N2CCC(C(N)=O)CC2)ccc1Nc1nc(N)c(Cl)c(Nc2ccccc2S(=O)(=O)C(C)C)n1` [HG-5-88-01] + N=C(N)NC(=N)NCCc1ccccc1 [Phenformin] (partner 250 µM) came in with a relative viability of 0.291.

Compound `Clc1ccc(Nc2nnc(Cc3ccncc3)c3ccccc23)cc1` [Vatalanib] + COc1cccc2cc(-c3nc([C@H]4CC[C@H](C(=O)O)CC4)n4ncnc(N)c34)[nH]c12 [OSI-027] (partner 0.5 µM) gave a relative viability of 0.631.

Regarding `Clc1ccc(Nc2nnc(Cc3ccncc3)c3ccccc23)cc1` [Vatalanib] + N=C(N)NC(=N)NCCc1ccccc1 [Phenformin] (partner 250 µM), the relative viability is 0.386.

Regarding `Clc1ccc(Nc2nnc(Cc3ccncc3)c3ccccc23)cc1` [Vatalanib] + Nc1nc2[nH]cc(CCc3ccc(C(=O)N[C@@H](CCC(=O)O)C(=O)O)cc3)c2c(=O)[nH]1 [Pemetrexed] (partner 0.2 µM), the relative viability stood at 0.699.

Another test has as its system NCI-H1563. The test is described as above. As to conditions: first compound 0.04 µM. In a few lines: as §1
Compound `COc1cc(N2CCC(C(N)=O)CC2)ccc1Nc1nc(N)c(Cl)c(Nc2ccccc2S(=O)(=O)C(C)C)n1` [HG-5-88-01] + N=C(N)NC(=N)NCCc1ccccc1 [Phenformin] (partner 250 µM) gave a relative viability of 0.7.

Compound `Clc1ccc(Nc2nnc(Cc3ccncc3)c3ccccc23)cc1` [Vatalanib] + COc1cccc2cc(-c3nc([C@H]4CC[C@H](C(=O)O)CC4)n4ncnc(N)c34)[nH]c12 [OSI-027] (partner 0.5 µM) yielded a relative viability of 0.735.

In the case of `Clc1ccc(Nc2nnc(Cc3ccncc3)c3ccccc23)cc1` [Vatalanib] + N=C(N)NC(=N)NCCc1ccccc1 [Phenformin] (partner 250 µM), the relative viability is 0.641.

With `Clc1ccc(Nc2nnc(Cc3ccncc3)c3ccccc23)cc1` [Vatalanib] + Nc1nc2[nH]cc(CCc3ccc(C(=O)N[C@@H](CCC(=O)O)C(=O)O)cc3)c2c(=O)[nH]1 [Pemetrexed] (partner 0.2 µM), the relative viability turned out to be 0.804.

The test is the same for the next values; noted with them: first compound 0.1265 µM.
`COc1cc(N2CCC(C(N)=O)CC2)ccc1Nc1nc(N)c(Cl)c(Nc2ccccc2S(=O)(=O)C(C)C)n1` [HG-5-88-01] + N=C(N)NC(=N)NCCc1ccccc1 [Phenformin] (partner 250 µM) displayed a relative viability of 0.64.

In turn, `Clc1ccc(Nc2nnc(Cc3ccncc3)c3ccccc23)cc1` [Vatalanib] + COc1cccc2cc(-c3nc([C@H]4CC[C@H](C(=O)O)CC4)n4ncnc(N)c34)[nH]c12 [OSI-027] (partner 0.5 µM) gave a relative viability of 0.677.

As to `Clc1ccc(Nc2nnc(Cc3ccncc3)c3ccccc23)cc1` [Vatalanib] + N=C(N)NC(=N)NCCc1ccccc1 [Phenformin] (partner 250 µM), the relative viability came out at 0.673.

`Clc1ccc(Nc2nnc(Cc3ccncc3)c3ccccc23)cc1` [Vatalanib] + Nc1nc2[nH]cc(CCc3ccc(C(=O)N[C@@H](CCC(=O)O)C(=O)O)cc3)c2c(=O)[nH]1 [Pemetrexed] (partner 0.2 µM) displayed a relative viability of 0.772.

The test is the same for the next values; noted with them: first compound 0.4 µM.
Turning to `COc1cc(N2CCC(C(N)=O)CC2)ccc1Nc1nc(N)c(Cl)c(Nc2ccccc2S(=O)(=O)C(C)C)n1` [HG-5-88-01] + N=C(N)NC(=N)NCCc1ccccc1 [Phenformin] (partner 250 µM), the relative viability is 0.683.

For the compound `Clc1ccc(Nc2nnc(Cc3ccncc3)c3ccccc23)cc1` [Vatalanib] + COc1cccc2cc(-c3nc([C@H]4CC[C@H](C(=O)O)CC4)n4ncnc(N)c34)[nH]c12 [OSI-027] (partner 0.5 µM), the relative viability came to 0.827.

In the case of `Clc1ccc(Nc2nnc(Cc3ccncc3)c3ccccc23)cc1` [Vatalanib] + N=C(N)NC(=N)NCCc1ccccc1 [Phenformin] (partner 250 µM), the relative viability stood at 0.666.

Take `Clc1ccc(Nc2nnc(Cc3ccncc3)c3ccccc23)cc1` [Vatalanib] + Nc1nc2[nH]cc(CCc3ccc(C(=O)N[C@@H](CCC(=O)O)C(=O)O)cc3)c2c(=O)[nH]1 [Pemetrexed] (partner 0.2 µM): the relative viability is 0.857.

Still in this test, the particulars now being: first compound 1.265 µM.
`COc1cc(N2CCC(C(N)=O)CC2)ccc1Nc1nc(N)c(Cl)c(Nc2ccccc2S(=O)(=O)C(C)C)n1` [HG-5-88-01] + N=C(N)NC(=N)NCCc1ccccc1 [Phenformin] (partner 250 µM) returned a relative viability of 0.604.

With `Clc1ccc(Nc2nnc(Cc3ccncc3)c3ccccc23)cc1` [Vatalanib] + COc1cccc2cc(-c3nc([C@H]4CC[C@H](C(=O)O)CC4)n4ncnc(N)c34)[nH]c12 [OSI-027] (partner 0.5 µM), the relative viability worked out at 0.698.

The compound `Clc1ccc(Nc2nnc(Cc3ccncc3)c3ccccc23)cc1` [Vatalanib] + N=C(N)NC(=N)NCCc1ccccc1 [Phenformin] (partner 250 µM) had a relative viability of 0.712.

`Clc1ccc(Nc2nnc(Cc3ccncc3)c3ccccc23)cc1` [Vatalanib] + Nc1nc2[nH]cc(CCc3ccc(C(=O)N[C@@H](CCC(=O)O)C(=O)O)cc3)c2c(=O)[nH]1 [Pemetrexed] (partner 0.2 µM) showed a relative viability of 0.758.

The same test, now with this note: first compound 4 µM.
`COc1cc(N2CCC(C(N)=O)CC2)ccc1Nc1nc(N)c(Cl)c(Nc2ccccc2S(=O)(=O)C(C)C)n1` [HG-5-88-01] + N=C(N)NC(=N)NCCc1ccccc1 [Phenformin] (partner 250 µM) returned a relative viability of 0.601.

`Clc1ccc(Nc2nnc(Cc3ccncc3)c3ccccc23)cc1` [Vatalanib] + COc1cccc2cc(-c3nc([C@H]4CC[C@H](C(=O)O)CC4)n4ncnc(N)c34)[nH]c12 [OSI-027] (partner 0.5 µM) yielded a relative viability of 0.738.

As to `Clc1ccc(Nc2nnc(Cc3ccncc3)c3ccccc23)cc1` [Vatalanib] + N=C(N)NC(=N)NCCc1ccccc1 [Phenformin] (partner 250 µM), the relative viability is 0.639.

`Clc1ccc(Nc2nnc(Cc3ccncc3)c3ccccc23)cc1` [Vatalanib] + Nc1nc2[nH]cc(CCc3ccc(C(=O)N[C@@H](CCC(=O)O)C(=O)O)cc3)c2c(=O)[nH]1 [Pemetrexed] (partner 0.2 µM) showed a relative viability of 0.77.
